Reference: PubChem BioAssay (NCI)
Values joined by “and” are separate entries in the source; they are usually repeats but may differ in a detail not shown here. Equal entries are not always repeated.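 Protocol summary: plate cells (96-well), add compound at 5 concentrations, incubate 48 h, interpolate endpoints linearly. The concentration for 50% growth inhibition is given as GI50. TGI marks complete inhibition of growth.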

Experiments:
Assay in all cases: NCI tumour cell line growth inhibition, 48 h
[1] = system: SK-MEL-2 melanoma
[2] = system: SN12C renal
[3] = system: OVCAR-5 ovarian
[4] = system: COLO 205 colon
[5] = system: SNB-19 CNS
[6] = system: SK-OV-3 ovarian
[7] = system: U251 CNS
[8] = system: MOLT-4 leukemia
[9] = system: A498 renal
[10] = system: ACHN renal

SMILES	GI50 [1] [µM]	TGI [1]	GI50 [2] [µM]	TGI [2] [µM]	GI50 [3] [µM]	TGI [3]	GI50 [4] [µM]	TGI [4]	GI50 [5] [µM]	TGI [5]	GI50 [6] [µM]	TGI [6] [µM]	GI50 [7] [µM]	TGI [7]	GI50 [8] [µM]	TGI [8]	GI50 [9] [µM]	TGI [9]	GI50 [10] [µM]	TGI [10]
CC(=O)[CH-]C(=O)c1ccccc1.CC(=O)[CH-]C(=O)c1ccccc1.[O-]c1ccc(O)cc1.[O-]c1ccc(O)cc1.[Ti+4]	14.6	28.2 µM	14.3	36.4	35.1	91.4 µM	18.2	32.6 µM	18.9	40 µM	24.4	76.8	11.1	24 µM	4.18	> 100 µM	18.4	37.3 µM	14.7	28.1 µM
CCN(CCc1ccc(F)cc1)c1ccc(CO)c(Cl)c1	7.29	21.1 µM	9.27	23	0.505	2.28 µM	7.06	21.5 µM	13.2	26.6 µM	12.4	27.8	4.06	17.3 µM	14.3	50.1 µM	0.12	0.268 µM	9.59	22.5 µM
NC(N)=NS(=O)(=O)c1ccc(NC(=O)c2ccc(Cl)c3c(Nc4ccc(S(=O)(=O)N=C(N)N)cc4)c4ccccc4nc23)cc1	–	> 100 µM	–	> 100	–	> 100 µM	–	> 100 µM	–	> 100 µM	–	> 100	–	> 100 µM	–	> 100 µM	–	> 100 µM	–	> 100 µM
COc1ccc(-n2nc(C)c3c(Nc4ccc(NC(=O)Nc5cc(C(F)(F)F)ccc5F)cc4)ncnc32)cc1	2.35	4.91 µM	2.96	42.9	2.87	10.6 µM	1.98	4.93 µM	3.66	> 100 µM	3.48	82.3	1.77	4.03 µM	2.69	12.1 µM	2.82	7.18 µM	2.92	42.9 µM
N#CC(C(=N/NC(N)=S)/C(=N\NC(N)=S)C(C#N)c1ccccc1)c1ccccc1 (configuration not stated)	–	> 10 µM	–	> 10	–	> 10 µM	–	> 10 µM	–	> 10 µM	–	> 10	–	> 10 µM	–	> 10 µM	–	> 10 µM	–	> 10 µM
c1ccc(CN2CCC3(CC2)ONC2=NCCN23)cc1	> 100	> 100 µM	27.1	82	40.8	> 100 µM	50.4	> 100 µM	> 100	> 100 µM	60.8	> 100	60.1	> 100 µM	47.3	> 100 µM	> 100	> 100 µM	49.7	> 100 µM
CCCCCn1ncc(-c2c(O)c(O)cc3c(O)c(-c4c(C)cc5c(-c6cnn(CCCCC)n6)c(O)c(O)cc5c4O)c(C)cc23)n1	0.147	6.81 µM	0.124	5.75	0.222	6.57 µM	0.595	3.22 µM	0.115	5.26 µM	0.142	2.64	0.0351	1.89 µM	0.0898	8.28 µM	3.99	8.25 µM	0.128	4.27 µM
C=CC1(C)/C(=N\O)C(C)(CC)C(=O)N1O (configuration not stated)	–	> 100 µM	–	> 100	–	> 100 µM	–	> 100 µM	–	> 100 µM	–	> 100	–	> 100 µM	–	> 100 µM	–	> 100 µM	–	> 100 µM
CCC1(c2ccncc2)CCC(=O)NC1=O (configuration not stated)	–	> 100 µM	–	> 100	–	> 100 µM	–	> 100 µM	–	> 100 µM	–	> 100	–	> 100 µM	–	> 100 µM	–	> 100 µM	–	> 100 µM
CN(C)c1ccc2c(SCC(=O)OCC(=O)[C@@]3(O)CC[C@H]4[C@@H]5CCC6=CC(=O)C=C[C@]6(C)[C@H]5C(=O)C[C@@]43C)c3ccc(N(C)C)cc3nc2c1	–	> 100 µM	–	> 59.3	–	> 100 µM	–	> 100 µM	–	> 94.5 µM	–	> 100	–	> 100 µM	–	> 100 µM	–	> 96.2 µM	–	20 µM
COc1ccc(-c2ccc(=O)oc2-c2cc(OC)c(OC)c(OC)c2)cc1O	0.315	> 100 µM	0.0697	> 100	–	> 100 µM	2.21	> 37.5 µM	0.0571	> 100 µM	0.0307	> 100	0.0286	> 100 µM	0.0512	> 100 µM	0.0315	> 77.6 µM	0.135	> 73.3 µM
COc1cc2c(cc1OCCN1C(=O)c3cccc4cccc(c34)C1=O)N=C[C@@H]1CCCN1C2=O	16.6	14.5 µM and 32.7 µM	–	14.7	23.9	18.1 µM and 49.9 µM	14.9	15.1 µM and 30.6 µM	37.7	30.2 µM and > 100 µM	–	46.5	14.2	12.6 µM and > 100 µM	42.2	11 µM and > 100 µM	19.6	16.6 µM and 42.8 µM	19	14.9 µM and 33 µM
Cc1cc2cc(Oc3ccnc(Nc4cccc(CS(=O)(=O)NCCN(C)C)c4)n3)ccc2[nH]1	11.5	25.7 µM	5.81	19.2	5.29	19.5 µM	4.47	16.9 µM	13	26.1 µM	14.4	29.5	5.33	18.4 µM	2.1	7.06 µM	1.04	4.19 µM	7.22	20.3 µM
